# Test results from PubChem BioAssay AID1549 (Sanford-Burnham Center for Chemical Genomics, 2009).
# Calls of active or inactive are those of the source. The rule behind the calls is not given here.
# Molecular target: Influenza A virus M2 proton channel (A/TW/4845/1999 H1N1)
# Test: NMR binding screen, influenza A virus M2 proton channel, Kd (AID 1549)
# Conditions: M2 protein
row,Structure (SMILES),Kd
1,ON=c1ccc2nc3ccccc3nc2cc1,> 4 mM (inactive)
2,CC(=O)c1c(C)n([O-])c2ccccc2[n+]1=O,> 4 mM (inactive)
3,O=c1c2ccccc2nc2n1CCS2,> 4 mM (inactive)
4,CC(CCC(=O)O)[C@H]1CCC2C3C[C@H](O)[C@@H]4C[C@H](O)CC[C@]4(C)C3CC[C@@]21C (stereo partly specified),> 4 mM (inactive)
5,O=C1CSC(=S)N1Cc1cccnc1,> 4 mM (inactive)
6,Cc1sc2nc(C)n(NC(N)=O)c(=O)c2c1C,> 4 mM (inactive)
7,Cc1nn(-c2ccccc2)c(Cl)c1C(N)=O,> 4 mM (inactive)
8,CC(=O)NC(O)C(=O)c1ccccc1 (stereo unspecified),> 4 mM (inactive)
9,OC1CSc2ncnn2C1 (stereo unspecified),> 4 mM (inactive)
10,O=C(O)Cn1nnn(-c2ccccc2)c1=S,> 4 mM (inactive)
11,CN(C)C(=O)CSc1nc(N)cc(=O)[nH]1,> 4 mM (inactive)
12,CC(=O)c1c(C)n(O)c2ccc3nonc3c12,> 4 mM (inactive)
13,COc1cc(OC)c(OC)cc1C=O,> 4 mM (inactive)
14,COc1cc(C(=O)O[C@H]2CC[C@@]3(C)[C@@H]4CC[C@H]5[C@]6(O)C[C@H](O)[C@@]7(O)[C@@H](CN8C[C@@H](C)CC[C@H]8[C@@]7(C)O)[C@]6(O)C[C@@]53OC24O)cc(OC)c1OC,> 4 mM (inactive)
15,O=S(=O)(NCc1ccco1)c1cccc2cccnc12,> 4 mM (inactive)
16,O=c1ccc2cc(O[C@@H]3O[C@H](CO)[C@@H](O)[C@H](O)[C@H]3O)c(O)cc2o1,> 4 mM (inactive)
17,CCCCCCCCCCCCCc1ccco1,> 4 mM (inactive)
18,CC(=O)Nc1cccc(-c2n[nH]c(=S)n2C)c1,> 4 mM (inactive)
19,O=C(O)CCC(=O)c1c[nH]c2ccccc12,> 4 mM (inactive)
20,C[C@@H]1OC(O[C@H]2C(O[C@H]3CC[C@@]4(C)C(CC[C@]5(C)C4CC=C4C6CC(C)(C)CC[C@]6(C(=O)O)CC[C@]45C)[C@]3(C)CO)OC[C@H](O)[C@@H]2O)[C@H](O)[C@H](O)[C@H]1O (stereo partly specified),> 4 mM (inactive)
21,CC(C)c1c(O)ccc2c1CCC1[C@@](C)(C=O)CCC[C@]21C (stereo partly specified),> 4 mM (inactive)
22,c1ccc(-c2noc(-c3ccco3)n2)nc1,> 4 mM (inactive)
23,COC(=O)Nc1nnc(-c2ccncc2)s1,> 4 mM (inactive)

row,Structure (SMILES),Kd
1,Cc1onc(-c2c(Cl)cccc2Cl)c1C(N)=O,> 4 mM (inactive)
2,CCOC(=O)CSCC(=O)Nc1nccs1,> 4 mM (inactive)
3,O=C(O)c1cccnc1N1CCCC1,> 4 mM (inactive)
4,COC(=O)c1cccc(Cn2nnc3ccccc3c2=O)c1,> 4 mM (inactive)
5,O=C(c1cc2ccccc2o1)c1nc2c(n1O)CCCCC2,> 4 mM (inactive)
6,OCc1ccc2occc2c1,> 4 mM (inactive)
7,Cc1ccc(C(=O)NCCO)c(Cl)c1,> 4 mM (inactive)
8,CCCNC(CC(=O)Nc1cccnc1)C(=O)O (stereo unspecified),> 4 mM (inactive)
9,COCCn1c(C)cc(O)cc1=O,> 4 mM (inactive)
10,CSc1nc(C)cc(-n2ccc(=O)[nH]c2=O)n1,> 4 mM (inactive)
11,CC(=O)Oc1cccc2ccc(=O)[nH]c12,> 4 mM (inactive)
12,CC(=O)c1c(C)nc(-c2cccs2)n1O,> 4 mM (inactive)
13,Cc1occc1C(=O)Nc1nnc(-c2ccncc2)s1,> 4 mM (inactive)
14,Cc1n[nH]c(=O)nc1N1CCN(c2ccccc2)CC1,> 4 mM (inactive)
15,COc1cc2nc[nH]c(=O)c2cc1OC,> 4 mM (inactive)
16,CNC(=O)c1cc(S(=O)(=O)N(C)C)ccc1Cl,> 4 mM (inactive)
17,O=C1CC(=O)N(c2ccccc2)c2ccccc21,> 4 mM (inactive)
18,Cc1n[nH]c(C)c1N,> 4 mM (inactive)
19,O=C(O)C1=Cc2ccccc2OC1,> 4 mM (inactive)
20,CNC(=S)Nc1ccc(OC)cc1C,> 4 mM (inactive)
21,O=C(NCc1ccccc1Cl)c1cnn2cccnc12,> 4 mM (inactive)
22,O=C(O)c1ccc(CN2CCCCC2)o1,> 4 mM (inactive)
23,O=C(NC1=NCCS1)c1cccc(F)c1,> 4 mM (inactive)
